Test results published in US12011506B2, “Combination and uses and treatments thereof” (priority 2017, dated 2024).

Key:
[1] = Drug interaction trials: effect of dolutegravir on pharmacokinetics of coadministered drugs
Excerpt: (§1) These recommendations are based on either drug interaction trials of individual components or predicted interactions due to the expected magnitude of interaction and potential for serious adverse events or loss of efficacy.

[2] = human, in vivo
[3] = human, in vivo; remark: listed apart in the source
[4] = Drug interaction trials: effect of rilpivirine on pharmacokinetics of coadministered drugs; conditions: No Effect = 1.00
[5] = Established and other potentially significant drug interactions with JULUCA (effect on concentration); format: in vivo, human; conditions: based on drug interaction trials or predicted interactions
Excerpt: as §1

[6] = Solubilities of non-micronized dolutegravir sodium in various solvents at 25° C.; format: physicochemical
[7] = Pre-dose concentrations of DTG and RPV at Weeks 2, 4 and 8 in the first 20 participants who switch from EFV or NVP to DTG + RPV; format: in vivo, human
Description: (§2) First set of participants (DTG 50 mg) received DIG 50 mg+RPV 25 mg together once daily, with a meal, in an open-label fashion up to Week 52 during early switch phase. Second set of participants (RPV 25 mg) also received DTG 50 mg+RPV 25 mg together once daily, with a meal, in an open-label fashion up to Week 52 during early switch phase.
(§3) First set of participants (DTG 50 mg) received DTG 50 mg+RPV 25 mg together once daily, with a meal, in an open-label fashion up to Week 52 during early switch phase. Second set of participants (RPV 25 mg) also received DTG 50 mg+RPV 25 mg together once daily, with a meal, in an open-label fashion up to Week 52 during early switch phase.

[8] = Pre-dose concentrations of DTG and RPV at Weeks 4, 24 and 48 or withdrawal in participants switching to DTG + RPV; format: in vivo, human
Description: as §2, §3

[9] = Solubilities of rilpivirine hydrochloride in various aqueous media; format: physicochemical
[10] = metformin 500 mg twice daily, dolutegravir 50 mg once daily
[11] = metformin 500 mg twice daily, dolutegravir 50 mg twice daily

C#C[C@]1(O)CC[C@H]2[C@@H]3CCC4=CC(=NO)CC[C@@H]4[C@H]3CC[C@@]21CC (mixture of isomers) [Norelgestromin]
Cmax of coadministered drug, geometric mean ratio with/without dolutegravir ([1]; No Effect = 1.00): 0.89
Cτ or C24 of coadministered drug, geometric mean ratio with/without dolutegravir ([1]; No Effect = 1.00): 0.93

CC(=O)Nc1ccc(O)cc1 [Acetaminophen]
Rilpivirine AUC, geometric mean ratio with/without coadministered drug [2]: 1.16
Rilpivirine Cmax, geometric mean ratio with/without coadministered drug [2]: 1.09
Rilpivirine Cmin, geometric mean ratio with/without coadministered drug [2]: 1.26
AUC of coadministered drug, geometric mean ratio with/without EDURANT [3]: 0.91
Cmax of coadministered drug, geometric mean ratio with/without EDURANT [3]: 0.97

COC(=O)N[C@H](C(=O)N1CCC[C@H]1c1nc(-c2ccc(-c3ccc(-c4c[nH]c([C@@H]5CCCN5C(=O)[C@@H](NC(=O)OC)C(C)C)n4)cc3)cc2)c[nH]1)C(C)C [Daclatasvir]
Cmax of coadministered drug, geometric mean ratio with/without dolutegravir ([1]; No Effect = 1.00): 1.03
Cτ or C24 of coadministered drug, geometric mean ratio with/without dolutegravir ([1]; No Effect = 1.00): 1.06

C#C[C@]1(O)CC[C@H]2[C@@H]3CCc4cc(O)ccc4[C@H]3CC[C@@]21C [Ethinyl estradiol]
Cmax of coadministered drug, geometric mean ratio with/without dolutegravir ([1]; No Effect = 1.00): 0.99
Cτ or C24 of coadministered drug, geometric mean ratio with/without dolutegravir ([1]; No Effect = 1.00): 1.02
AUC of coadministered drug, geometric mean ratio with/without EDURANT [3]: 1.14
Cmax of coadministered drug, geometric mean ratio with/without EDURANT [3]: 1.17
Cmin of coadministered drug, geometric mean ratio with/without EDURANT [4]: 1.09

CN(C)C(=N)N=C(N)N [Metformin]
AUC of coadministered drug, geometric mean ratio with/without dolutegravir [1, 10]: 1.79
Cmax of coadministered drug, geometric mean ratio with/without dolutegravir [1, 10]: 1.66
AUC of coadministered drug, geometric mean ratio with/without dolutegravir [1, 11]: 2.45
Cmax of coadministered drug, geometric mean ratio with/without dolutegravir [1, 11]: 2.11
Effect on Concentration of the concomitant drug [5]: ↑Metformin
AUC of coadministered drug, geometric mean ratio with/without EDURANT [3]: 0.97
Cmax of coadministered drug, geometric mean ratio with/without EDURANT [3]: 1.02

COc1ccc2[nH]c([S+]([O-])Cc3ncc(C)c(OC)c3C)nc2c1 (stereo not drawn) [Omeprazole]
Effect on Concentration of Rilpivirine ([5]; concomitant drug with JULUCA): ↓Rilpivirine
Rilpivirine AUC, geometric mean ratio with/without coadministered drug [2]: 0.60
Rilpivirine Cmax, geometric mean ratio with/without coadministered drug [2]: 0.60
Rilpivirine Cmin, geometric mean ratio with/without coadministered drug [2]: 0.67
AUC of coadministered drug, geometric mean ratio with/without EDURANT [3]: 0.86
Cmax of coadministered drug, geometric mean ratio with/without EDURANT [3]: 0.86

CCCc1nn(C)c2c(=O)[nH]c(-c3cc(S(=O)(=O)N4CCN(C)CC4)ccc3OCC)nc12 [Sildenafil]
Rilpivirine AUC, geometric mean ratio with/without coadministered drug [2]: 0.98
Rilpivirine Cmax, geometric mean ratio with/without coadministered drug [2]: 0.92
Rilpivirine Cmin, geometric mean ratio with/without coadministered drug [2]: 1.04
AUC of coadministered drug, geometric mean ratio with/without EDURANT [3]: 0.97
Cmax of coadministered drug, geometric mean ratio with/without EDURANT [3]: 0.93

C[C@@H]1CCO[C@H]2Cn3cc(C(=O)NCc4ccc(F)cc4F)c(=O)c([O-])c3C(=O)N12.[Na+] [dolutegravir sodium, sodium (4R,12aS)-9-{[(2,4-difluorophenyl)methyl]carbamoyl}-4-methyl-6,8-dioxo-3,4,6,8,12,12a-hexahydro-2H-pyrido[1′,2′:4,5]pyrazino[2,1-b][1,3]oxazin-7-olate]
Descriptor (solubility) ([6]; FaSSIF, pH 6.5, 25° C.): Very slightly soluble
Descriptor (solubility) ([6]; FaSSIF, pH 6.5, 25° C., listed as Non-micronized dolutegravir sodium): very slightly soluble
Descriptor (solubility) ([6]; FeSSIF, pH 5.0, 25° C.): Very slightly soluble
Descriptor (solubility) ([6]; FeSSIF, pH 5.0, 25° C., listed as Non-micronized dolutegravir sodium): very slightly soluble
Descriptor (solubility) ([6]; SGF, pH 1.2, 25° C.): Practically insoluble
Descriptor (solubility) ([6]; SGF, pH 1.2, 25° C., listed as Non-micronized dolutegravir sodium): practically insoluble
Descriptor (solubility) ([6]; Water, solution pH 10.1, 25° C.): Slightly soluble
Descriptor (solubility) ([6]; Water, solution pH 10.1, 25° C., listed as Dolutegravir sodium): slightly soluble
solubility at 8 h ([6]; simulated gastric fluid, thermodynamic from solid, SGF, pH 1.2, 25° C., 8 hours): 21 µg/mL
solubility at 4 h ([6]; thermodynamic from solid, FaSSIF, pH 6.5, 25° C., 4 hours): 239 µg/mL
solubility at 4 h ([6]; thermodynamic from solid, FeSSIF, pH 5.0, 25° C., 4 hours): 170 µg/mL
solubility at 4 h ([6]; thermodynamic from solid, Water, solution pH 10.1, 25° C., equilibrium after 4 hours): 3180 µg/mL
Pre-dose concentration, Mean ± Standard Deviation ([7]; Example 3 (Table 10), Week 2): 821.25 ± 574.607 µg/L
Pre-dose concentration, Mean ± Standard Deviation ([7]; Example 3 (Table 10), Week 4): 994.00 ± 581.201 µg/L
Pre-dose concentration, Mean ± Standard Deviation ([7]; Example 3 (Table 10), Week 8): 1561.34 ± 1096.381 µg/L
Pre-dose concentration, Mean ± Standard Deviation ([7]; Example 5 (Table 13), Week 2): 834.58 ± 639.622 µg/L
Pre-dose concentration, Mean ± Standard Deviation ([7]; Example 5 (Table 13), Week 4): 1218.23 ± 842.703 µg/L
Pre-dose concentration, Mean ± Standard Deviation ([7]; Example 5 (Table 13), Week 8): 1472.50 ± 818.774 µg/L
Pre-dose concentration, Mean ± Standard Deviation ([8]; Example 3 (Table 10), Week 4): 1581.06 ± 1146.860 µg/L
Pre-dose concentration, Mean ± Standard Deviation ([8]; Example 3 (Table 10), Week 24): 1835.68 ± 1120.539 µg/L
Pre-dose concentration, Mean ± Standard Deviation ([8]; Example 3 (Table 10), Week 48): 1915.11 ± 1304.238 µg/L
Pre-dose concentration, Mean ± Standard Deviation ([8]; Example 5 (Table 13), Week 4): 1578.88 ± 1170.967 µg/L
Pre-dose concentration, Mean ± Standard Deviation ([8]; Example 5 (Table 13), Week 24): 1447.23 ± 917.677 µg/L
Pre-dose concentration, Mean ± Standard Deviation ([8]; Example 5 (Table 13), Week 48): 1384.36 ± 889.829 µg/L

Cc1cc(/C=C/C#N)cc(C)c1Nc1ccnc(Nc2ccc(C#N)cc2)n1.Cl [rilpivirine hydrochloride, 4-[[4-[[4-[(E)-2-cyanoethenyl]-2,6-dimethylphenyl]amino]-2-pyrimidinyl]amino]benzonitrile hydrochloride]
Descriptor (solubility) ([9]; 0.01N HCl, pH 2.0): Practically insoluble (Practically insoluble or Insoluble: Parts of solvent required for 1 part of solute: greater than or equal to 10,000)
Solubility ([9]; 0.01N HCl, pH 2.0, 20° C.): 0.003 g/100 mL
Descriptor (solubility) ([9]; 0.1N HCl, pH 1.1): Practically insoluble (Practically insoluble or Insoluble: Parts of solvent required for 1 part of solute: greater than or equal to 10,000)
Solubility ([9]; 0.1N HCl, pH 1.1, 20° C.): <0.001 g/100 mL
Descriptor (solubility) ([9]; 0.1N NaOH, pH 12.9): Practically insoluble (Practically insoluble or Insoluble: Parts of solvent required for 1 part of solute: greater than or equal to 10,000)
Solubility ([9]; 0.1N NaOH, pH 12.9, 20° C.): <0.001 g/100 mL
Descriptor (solubility) ([9]; Borate-KCl, pH 8.9): Practically insoluble (Practically insoluble or Insoluble: Parts of solvent required for 1 part of solute: greater than or equal to 10,000)
Solubility ([9]; Borate-KCl, pH 8.9, 20° C.): <0.001 g/100 mL
Descriptor (solubility) ([9]; Citrate-HCl, pH 2.0): Practically insoluble (Practically insoluble or Insoluble: Parts of solvent required for 1 part of solute: greater than or equal to 10,000)
Solubility ([9]; Citrate-HCl, pH 2.0, 20° C.): <0.001 g/100 mL
Descriptor (solubility) ([9]; Citrate-NaOH, pH 5.0): Practically insoluble (Practically insoluble or Insoluble: Parts of solvent required for 1 part of solute: greater than or equal to 10,000)
Solubility ([9]; Citrate-NaOH, pH 5.0, 20° C.): <0.001 g/100 mL
Descriptor (solubility) ([9]; Phosphate Buffer, pH 6.9): Practically insoluble (Practically insoluble or Insoluble: Parts of solvent required for 1 part of solute: greater than or equal to 10,000)
Solubility ([9]; Phosphate Buffer, pH 6.9, 20° C.): <0.001 g/100 mL
Descriptor (solubility) ([9]; Phosphate-NaOH, pH 11.9): Practically insoluble (Practically insoluble or Insoluble: Parts of solvent required for 1 part of solute: greater than or equal to 10,000)
Solubility ([9]; Phosphate-NaOH, pH 11.9, 20° C.): <0.001 g/100 mL
Descriptor (solubility) ([9]; Water, solution pH 2.2): Practically insoluble (Practically insoluble or Insoluble: Parts of solvent required for 1 part of solute: greater than or equal to 10,000)
Solubility ([9]; Water, solution pH 2.2, 20° C.): 0.001 g/100 mL
Descriptor (solubility) ([9]; aqueous media (Table 16)): practically insoluble
Pre-dose concentration, Mean ± Standard Deviation ([7]; Example 3 (Table 10), Week 2): 65.360 ± 31.2965 µg/L
Pre-dose concentration, Mean ± Standard Deviation ([7]; Example 3 (Table 10), Week 4): 67.374 ± 27.5663 µg/L
Pre-dose concentration, Mean ± Standard Deviation ([7]; Example 3 (Table 10), Week 8): 77.416 ± 37.7129 µg/L
Pre-dose concentration, Mean ± Standard Deviation ([7]; Example 5 (Table 13), Week 2): 57.342 ± 29.5436 µg/L
Pre-dose concentration, Mean ± Standard Deviation ([7]; Example 5 (Table 13), Week 4): 78.338 ± 31.4825 µg/L
Pre-dose concentration, Mean ± Standard Deviation ([7]; Example 5 (Table 13), Week 8): 79.652 ± 40.7546 µg/L
Pre-dose concentration, Mean ± Standard Deviation ([8]; Example 3 (Table 10), Week 4): 92.046 ± 138.2880 µg/L
Pre-dose concentration, Mean ± Standard Deviation ([8]; Example 3 (Table 10), Week 24): 87.875 ± 39.1412 µg/L
Pre-dose concentration, Mean ± Standard Deviation ([8]; Example 3 (Table 10), Week 48): 95.405 ± 48.2978 µg/L
Pre-dose concentration, Mean ± Standard Deviation ([8]; Example 5 (Table 13), Week 4): 79.504 ± 38.2305 µg/L
Pre-dose concentration, Mean ± Standard Deviation ([8]; Example 5 (Table 13), Week 24): 90.207 ± 46.3022 µg/L
Pre-dose concentration, Mean ± Standard Deviation ([8]; Example 5 (Table 13), Week 48): 91.799 ± 47.1371 µg/L
